Results on 1 compound are retold here after US4416874A, “Injectable compositions of BBM-928A” (Bristol-Myers Company, priority 1982, dated 1983).

≈ marks a conversion by molar mass, not a printed value. Like-named read-outs stand apart in the source and are kept apart here.

Data set [1] is described as follows: Solubility in solvents and pharmaceutical vehicles. The class given is physicochemical. How it is done:
Is thus evident that due to the hydrolytic sensitivity and insolubility of BBM-928A that a formidable pharmaceutical formulation problem is presented for the intravenous use thereof.
The disodium salt of BBM-928A has been prepared by dissolving BBM-928A in aqueous sodium hydroxide at pH 10.5, washing with chloroform, and lyophilizing the aqueous solution. Its solubility in water is 0.5 mg/ml. In the dry state disodium BBM-928A gradually decomposes to BBM-928B and BBM-928C at higher temperatures. The following Table exemplifies this:
Limited solubility in the following solvents was observed.
(§1) The preferred composition of the present invention employs trisodium orthophosphate as the base for solubilization of BBM-928A. Solutions having concentrations of BBM-928A of from 1 to 5 mg per milliliter are readily prepared when 0.65 parts by weight of trisodium orthophosphate per part by weight of BBM-928A are employed. Such solutions have a pH within the range of 11.0 to 11.5. If an amount of the base is employed which is insufficient to provide a pH value of pH 11.0 the desired level of solubilization of the BBM-928A is not achieved. At pH values in excess of 11.5 decomposition through hydrolysis of the BBM-928A becomes so extensive as to result in loss of utility of the solutions. […] Such solutions should not be kept for longer periods but should be prepared extemporaneously prior to use. Conventional aseptic techniques conforming to the criteria of both good laboratory practices and good manufacturing practices should be employed in preparing the compositions of the present invention.

A short description of data set [2]: Stability of intravenous solutions at pH 11.0 to 11.5 (high performance liquid chromatography). As to conditions: intravenous solution solubilized by trisodium phosphate. Format: physicochemical. How it is done:
as §1, with “Conventional aseptic techniques conforming to the criteria of both good laboratory practices and good manufacturing practices should be employed in preparing the compositions of the present invention.” left out
The resulting bulk powder is then filled into glass vials at the rate of 16.5 mg. per vial (10 mg. BBM-928A), and the vials sealed by a proper closure to maintain the anhydrous sterile condition. […] Each vial is constituted for intravenous injection with the desired quantity of sterile water for injection in an amount of 2 ml. or more per vial (conc. up to 5 mg/ml. and preferably from 1 to 5 mg/ml. of BBM-928A). […]

The conditions of data set [3]: chloroform and methylene chloride; cited from earlier work.

In general, solubility refers to how much of the substance goes into solution per volume. Turning to `COc1ccc2nc(C(=O)N[C@@H]3COC(=O)[C@H](C(C)(C)O)N(C)C(=O)CN(C)C(=O)CNC(=O)[C@@H]4[C@@H](OC(C)=O)CC=NN4C(=O)[C@H](NC(=O)c4nc5ccc(OC)cc5cc4O)COC(=O)[C@H](C(C)(C)O)N(C)C(=O)CN(C)C(=O)CNC(=O)[C@@H]4[C@@H](OC(C)=O)CC=NN4C3=O)c(O)cc2c1` [BBM-928A], the solubility is 1 mg/mL (≈ 701 µM) in data set [1] (Aqueous L-arginine 10%, yellow solution with a slight haze); “about 1 mg/ml” in data set [1] (Ethyl lactate, slight haze); 0.5 mg/mL (≈ 350 µM) in data set [1] (Ethyl levulinate, standing in contact with the solvent overnight); 1 mg/mL (≈ 701 µM) in data set [1] (Lactic acid U.S.P.); “readily soluble” in data set [3]. For the same compound, the “solubility in 22 commonly employed pharmaceutical vehicles” value in data set [1] (poloxamer polyols, benzyl alcohol, ethanol, fixed oils, propylene glycol, polyethylene glycol 400, urea, povidone, nicotinamide, dextrose solutions etc.) is “virtually insoluble”. Moreover, the “period of sufficient stability for use following preparation” value in data set [2] is on record as “up to 4 hours”.
